Active and inactive are the calls of the source. No cut-off for these calls is given here.
How the values were obtained:
MDA-MB-231 [1] = experiment: Inhibition of Sialyltransferase in human MDA-MB-231 cells assessed as decrease p-talin-1 association with integrins beta1 and beta 3 after 48 hrs by immunofluorescence and coimmunoprecipitation assay; format: cell-based
[2] = target: T1, CMP-N-acetylneuraminate-beta-1,4-galactoside alpha-2,3-sialyltransferase (Rattus norvegicus, UniProt Q02734); experiment: Inhibition of rat alpha-2,3-N-ST3GALIII assessed as reduction in sialylated-product formation using Gal-beta1-4Glc and CMP-NeuSAc incubated for 1.5 hrs by reverse-phase HPLC analysis
T1 sequence (Q02734 whole entry): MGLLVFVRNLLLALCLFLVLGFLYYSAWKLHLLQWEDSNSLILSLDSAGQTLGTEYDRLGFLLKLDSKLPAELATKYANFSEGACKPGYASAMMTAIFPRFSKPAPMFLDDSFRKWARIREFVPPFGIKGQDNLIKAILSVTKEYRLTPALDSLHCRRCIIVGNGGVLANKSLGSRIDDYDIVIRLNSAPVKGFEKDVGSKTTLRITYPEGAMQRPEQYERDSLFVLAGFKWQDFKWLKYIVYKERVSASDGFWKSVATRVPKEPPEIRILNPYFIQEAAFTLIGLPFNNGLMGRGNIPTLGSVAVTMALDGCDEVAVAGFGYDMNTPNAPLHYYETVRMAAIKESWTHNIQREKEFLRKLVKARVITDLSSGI

[3] = target: T2, Beta-galactoside alpha-2,6-sialyltransferase 1 (Homo sapiens, UniProt P15907); experiment: Inhibition of human alpha-2,6-ST6GAL1 assessed as reduction in sialylated-product formation using Gal-beta1-4GlcNac and CMP-NeuSAc incubated for 15 mins by reverse-phase HPLC analysis
T2 sequence (P15907 whole entry): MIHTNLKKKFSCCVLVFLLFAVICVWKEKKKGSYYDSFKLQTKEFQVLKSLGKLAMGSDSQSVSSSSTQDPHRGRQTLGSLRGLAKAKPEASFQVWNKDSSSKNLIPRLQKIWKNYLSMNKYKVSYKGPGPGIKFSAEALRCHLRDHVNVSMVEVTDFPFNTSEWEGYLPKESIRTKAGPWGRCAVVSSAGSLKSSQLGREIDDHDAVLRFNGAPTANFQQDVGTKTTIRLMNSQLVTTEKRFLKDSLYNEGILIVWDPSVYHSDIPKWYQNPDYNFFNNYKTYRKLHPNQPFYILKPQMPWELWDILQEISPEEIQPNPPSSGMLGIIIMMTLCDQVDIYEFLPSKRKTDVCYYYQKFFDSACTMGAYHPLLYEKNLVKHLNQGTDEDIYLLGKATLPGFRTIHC

[4] = target: T3, Sialyltransferase ST3Gal-I (Rattus norvegicus) (UniProt Q6H8N0); experiment: Inhibition of rat alpha-2,3-O-ST3GALI assessed as reduction in sialylated-product formation at 500 uM using p-nitrophenyl T-antigen and CMP-NeuSAc incubated for 15 mins by reverse-phase HPLC analysis relative to control
T3 sequence (whole entry): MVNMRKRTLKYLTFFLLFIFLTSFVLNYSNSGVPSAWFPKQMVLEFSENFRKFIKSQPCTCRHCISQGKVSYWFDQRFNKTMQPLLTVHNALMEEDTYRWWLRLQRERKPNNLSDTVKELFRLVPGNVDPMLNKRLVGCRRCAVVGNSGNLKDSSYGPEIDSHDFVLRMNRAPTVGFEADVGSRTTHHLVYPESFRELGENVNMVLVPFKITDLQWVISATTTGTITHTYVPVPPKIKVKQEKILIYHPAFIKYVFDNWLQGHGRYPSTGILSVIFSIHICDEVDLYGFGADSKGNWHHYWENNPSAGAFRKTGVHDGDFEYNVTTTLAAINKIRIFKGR

[5] = target: T3, Sialyltransferase ST3Gal-I (Rattus norvegicus); experiment: Inhibition of rat alpha-2,3-O-ST3GALI assessed as reduction in sialylated-product formation at 1 mM using p-nitrophenyl T-antigen and CMP-NeuSAc incubated for 15 mins by reverse-phase HPLC analysis relative to control
Rattus norvegicus [6] = organism: Rattus norvegicus; experiment: Selectivity ratio of inhibition of rat alpha-2,3-O-ST3GALI at 500 uM to IC50 for inhibition of rat alpha-2,3-N-ST3GALIII
Rattus norvegicus [7] = organism: Rattus norvegicus; experiment: Selectivity ratio of inhibition of rat alpha-2,3-O-ST3GALI at 1000 uM to IC50 for inhibition of rat alpha-2,3-N-ST3GALIII
[8] = Selectivity ratio of IC50 for of inhibition of rat alpha-2,3-O-ST3GALI to IC50 for inhibition of human alpha-2,6-ST6GAL1
[9] = Toxicity in human MDA-MB-231 cells assessed as cell survival at >60 uM relative to control; format: cell-based; conditions: read-out: Survival
MDA-MB-231 [10] = experiment: Inhibition of serum-induced cell migration of human MDA-MB-231 cells incubated for 16 hrs by Boyden chamber assay; format: functional, cell-based; conditions: MDA-MB-231, 16 h
MDA-MB-231 [11] = experiment: Inhibition of serum-induced cell migration of human MDA-MB-231 cells at 20 uM incubated for 16 hrs by Boyden chamber assay; format: functional, cell-based
MDA-MB-231 [12] = experiment: Inhibition of Sialyltransferase in human MDA-MB-231 cells assessed as suppression of sialylation of integrin subunit beta1/beta3/beta4/beta5 at 10 to 20 um after 48 hrs by Western blot analysis; format: cell-based; conditions: dose 10-20 µM
MDA-MB-231 [13] = experiment: Inhibition of Sialyltransferase in human MDA-MB-231 cells assessed as reduction in integrin isoforms expression (alphaV/alpha5/beta1/beta3/beta4/beta5) at 10 to 20 uM incubated for 48 hrs by immunoblot analysis; format: cell-based; conditions: dose 10-20 µM
MDA-MB-231 [14] = experiment: Inhibition of Sialyltransferase in human MDA-MB-231 cells assessed as reduction in FAK Tyr397 phosphorylation level at 10 to 20 uM incubated for 48 hrs by immunoblot analysis; format: cell-based; conditions: dose 10-20 µM
MDA-MB-231 [15] = experiment: Inhibition of Sialyltransferase in human MDA-MB-231 cells assessed as reduction in FAK Tyr576/577 phosphorylation level at 10 to 20 uM incubated for 48 hrs by immunoblot analysis; format: cell-based; conditions: dose 10-20 µM
MDA-MB-231 [16] = experiment: Inhibition of Sialyltransferase in human MDA-MB-231 cells assessed as reduction in FAK Tyr925 phosphorylation level at 10 to 20 uM incubated for 48 hrs by immunoblot analysis; format: cell-based; conditions: dose 10-20 µM
MDA-MB-231 [17] = experiment: Inhibition of Sialyltransferase in human MDA-MB-231 cells assessed as reduction in paxillin Tyr118 phosphorylation level at 10 to 20 uM incubated for 48 hrs by immunoblot analysis; format: cell-based; conditions: dose 10-20 µM
MDA-MB-231 [18] = experiment: Inhibition of Sialyltransferase in human MDA-MB-231 cells assessed as reduction in IKKalpha/beta Ser176/180 phosphorylation level at 10 to 20 uM incubated for 48 hrs by immunoblot analysis; format: cell-based; conditions: dose 10-20 µM
MDA-MB-231 [19] = experiment: Inhibition of Sialyltransferase in human MDA-MB-231 cells assessed as reduction in IkappaB-alpha Ser32 phosphorylation level at 10 to 20 uM incubated for 48 hrs by immunoblot analysis; format: cell-based; conditions: dose 10-20 µM
MDA-MB-231 [20] = experiment: Inhibition of Sialyltransferase in human MDA-MB-231 cells assessed as reduction in NFkappaB Ser536 phosphorylation level at 10 to 20 uM incubated for 48 hrs by immunoblot analysis; format: cell-based; conditions: dose 10-20 µM
[21] = Apparent permeability at pH 7.4 by PAMPA
MDA-MB-231 [22] = experiment: Antitumor activity against luciferase-tagged human MDA-MB-231 cells xenografted in BALB/c mouse assessed as induction of tumor suppression at 10 mg/kg/3 days, ip measured after 50 days; format: functional, organism-based; conditions: time 50.0 day
MDA-MB-231 [23] = experiment: Antitumor activity against luciferase-tagged human MDA-MB-231 cells xenografted in BALB/c mouse assessed as induction of delayed lung metastasis at 10 mg/kg/3 days, ip measured after 50 days; format: functional, organism-based; conditions: time 50.0 day
MDA-MB-231 [24] = experiment: Antitumor activity against luciferase-tagged human MDA-MB-231 cells xenografted in BALB/c mouse assessed as reduction in number of metastatic foci in lungs at 10 mg/kg/3 days, ip measured after 50 days by histological analysis; format: functional, organism-based; conditions: time 50.0 day
MDA-MB-231 [25] = experiment: Antitumor activity against luciferase-tagged human MDA-MB-231 cells xenografted in BALB/c mouse assessed as reduction in metastatic nodules in lymph node at 10 mg/kg/3 days, ip measured after 50 days by H and E staining based histological analysis; format: functional, organism-based; conditions: time 50.0 day
MDA-MB-231 [26] = experiment: Antiangiogenesis activity against luciferase-tagged human MDA-MB-231 cells xenografted in BALB/c mouse assessed as reduction in number of vessels surrounding tumor nodules by measuring CD31 expression at 10 mg/kg/3 days, ip measured after 50 days by immunostaining; format: functional, organism-based; conditions: time 50.0 day
MDA-MB-231 [27] = experiment: Antiangiogenesis activity against luciferase-tagged human MDA-MB-231 cells xenografted in BALB/c mouse assessed as reduction in cell proliferation by measuring Ki67 expression at 10 mg/kg/3 days, ip measured after 50 days by immunostaining; format: functional, organism-based; conditions: time 50.0 day

## C[C@H](CCC(=O)OCCOCCOCCOCCN=[N+]=[N-])[C@H]1CC[C@H]2[C@@H]3CC[C@@H]4C[C@H](OC(=O)[C@H](CC(=O)O)Nc5ccc([N+](=O)[O-])c6nonc56)CC[C@]4(C)[C@H]3CC[C@]12C
MDA-MB-231 [1]
  inhibition: Dose-dependent effect
[2]
  IC50: 1.01 µM
[3]
  IC50: 4.9 µM
[4]
  inhibition: 0%
[5]
  inhibition: 50%
Rattus norvegicus [6]
  Selectivity ratio: > 495
Rattus norvegicus [7]
  Selectivity ratio: < 990
[8]
  Ratio IC50: > 102
[9]
  viability: > 90%
MDA-MB-231 [10]
  IC50: 12 µM
MDA-MB-231 [11]
  inhibition: Active
MDA-MB-231 [12]
  inhibition: Active
MDA-MB-231 [13]
  inhibition: Dose-dependent effect
MDA-MB-231 [14]
  inhibition: Dose-dependent effect
MDA-MB-231 [15]
  inhibition: Dose-dependent effect
MDA-MB-231 [16]
  inhibition: Dose-dependent effect
MDA-MB-231 [17]
  inhibition: Dose-dependent effect
MDA-MB-231 [18]
  inhibition: Active
MDA-MB-231 [19]
  inhibition: Active
MDA-MB-231 [20]
  inhibition: Active
[21]
  Papp: 9 ×10⁻⁶ cm/s

## CC(=O)O[C@H]1C(=O)[C@@]2(C)[C@H]([C@H](OC(=O)c3ccccc3)[C@]3(O)C[C@H](OC(=O)[C@H](O)[C@@H](NC(=O)c4ccccc4)c4ccccc4)C(C)=C1C3(C)C)[C@]1(OC(C)=O)CO[C@@H]1C[C@@H]2O
MDA-MB-231 [22]
  Activity: Active
MDA-MB-231 [23]
  Activity: Active
MDA-MB-231 [24]
  Activity: Active
MDA-MB-231 [25]
  Activity: Active
MDA-MB-231 [26]
  Activity: Active
MDA-MB-231 [27]
  Activity: Active
